Results on 16 compounds are retold here after patent US9796700B2 (Celgene CAR LLC, priority 2013, dated 2017).

In experiment [1] the target is T1, Erk1 (Homo sapiens (Human), UniProt P27361). Kind of experiment: Protein Mass Modification Assay (intact protein MALDI). Type of experiment: binding. The essentials:
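Human Erk1 was incubated 60 min at room temperature with a 10-fold molar excess of compound, then analysed as intact protein by MALDI with sinapinic acid matrix. The centroid mass shift versus untreated protein was divided by compound molecular weight to give percent modified protein.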
Target sequence in this assay (P27361 whole entry, looked up): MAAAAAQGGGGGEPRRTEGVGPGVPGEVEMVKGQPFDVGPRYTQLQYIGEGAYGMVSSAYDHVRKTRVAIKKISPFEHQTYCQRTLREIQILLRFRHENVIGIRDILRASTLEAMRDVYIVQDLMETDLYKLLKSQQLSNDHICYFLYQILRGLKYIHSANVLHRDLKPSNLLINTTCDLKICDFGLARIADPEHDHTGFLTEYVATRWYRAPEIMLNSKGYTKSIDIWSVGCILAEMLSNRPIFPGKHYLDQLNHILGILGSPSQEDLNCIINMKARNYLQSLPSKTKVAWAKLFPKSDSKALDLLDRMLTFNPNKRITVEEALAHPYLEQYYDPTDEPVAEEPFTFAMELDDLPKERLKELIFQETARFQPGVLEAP

For experiment [2], the system named is ERK1 phosphorylation of its substrate RSK in HT29 cells. As to the kind of experiment: pRSK MSD Assay in HT29 cells. Type of experiment: cell-based. The settings on record: Homo sapiens. In outline: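 HT29 cells were serum-starved overnight in 0.1% FBS, then treated with compound for 120 min at 37 °C. Lysates were assayed on MSD plates with RSK capture and phospho-RSK detection antibodies using electrochemiluminescence read-out.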

The next experiment concerns HT-29 cells. As to the kind of experiment: Measurement of inhibition of cancer cell proliferation (CellTiterGlo). The experiment is classed as cell-based. The settings on record: Homo sapiens, 72 hours. As for the experimental part: Measurement of Inhibition of Cancer Cell Proliferation
HT-29 cells were split and 3000 cells in 100 μl of growth medium were added per well of a flat-bottom 96-well plate. A two-fold test compound solution in serum-free RPM1640 was made, starting at 5,000 nM. Then, 3-fold serial dilutions were made across the plate from well 1 to well 11. Well 12, the last well in a row on the plate, was left as untreated control. 100 μl compound solutions were then transferred to the wells, so the total volume of media was 200 μl per well. Plates were returned to a 37° C. incubator, and the cells were cultured for 72 hours. To measure cell proliferation after 72 hours, media was discarded from the plates, 50 μl/well of fresh medium was added, and 50 μl CellTiterGlo solution was added (Promega Cat#G7573). The plate was covered with a dark lid and incubated for 10 min. A sealing tape was applied to the bottom of the plate, and the plate was read in a luminescence plate reader. […] A 2-fold serial dilution was used to generate 8 cell densities from 50,000-390 cells per well in 50 μl media. 50 μl CellTiterGlo was added per well, and the plate was read in a luminescence plate reader after 10 min. The reading was plotted vs. cell number to generate a standard curve and the equation of the curve fit. The compound-treated sample luminescence readings were converted to cell numbers using the equation. The percent of inhibition, using untreated control as 100% growth, was then calculated. GI50 was then calculated by GraphPad Prism.

A further experiment concerns the target MEK1 activated ERK1 (Homo sapiens (Human), UniProt P27361). Kind of experiment: Omnia continuous-read kinase assay for potency against MEK1 activated ERK1. The experiment is classed as biochemical. In outline:
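Apparent IC50 came from initial reaction slopes (RFU vs time) plotted against log inhibitor with a variable-slope fit. Reactions were started with ERK1 (4 nM final) added to 50 μM ATP, roughly at its appKM, and 10 μM Sox-conjugated ST17 peptide in 20 mM Tris pH 7.5, 5 mM MgCl2. Fluorescence was monitored every 71 seconds.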

Experiment [3] concerns the target T1, Erk1. As to the kind of experiment: Measurement of Erk occupancy with biotinylated covalent probe I-299. The experiment is classed as cell-based. The settings on record: HT-29 cells. As for the experimental part: Measurement of Erk Occupancy with Biotinylated Covalent Probe
This experiment measured occupancy of the ERK1 target by compounds according to the invention. This experiment was conducted using the Mesoscale Discovery test kit (Cat. #N45107B). One day before the assay, cells were split and added at 50,000 cells per well to a flat-bottom 96 well plate in 200 μl of growth medium. The next day, the medium was discarded, 100 μl medium containing test compound was added, and the plate was incubated at 37° C. for 120 minutes. The plate was rinsed once with PBS, and 50 μl lysis buffer with test compound was added. The plate was incubated at 4° C. for 30 min, and 30 μl of lysate was transferred to a plate to capture total and phosphor-Erk. Biotinylated probe I-299 was diluted in lysis buffer and added to each well to a final concentration of 0.2 μM. The plate was incubated for 2 hr under constant shaking at room temperature. The plate was washed 3 times with MSD wash buffer. To detect the biotinylated probe bonding, tagged streptavidin was added (MSD, Cat#R32AD-1) at 1 μg/ml, 25 μl/well, followed by a 60 min incubation under shaking. The plate was washed 3 times, 150 μl MSD Read Buffer (Cat#R61TX) was added and the plate was read in a plate reader manufactured by MSD. Percent occupancy by test compound at Erk was calculated by comparing the chemiluminescence readings from treated cells as compared to the chemiluminescence readings in untreated controls (which are defined as 100% probe bonding or 0% occupancy). The amount of covalent probe signal divided by the amount of ERK signal for samples with no test compound treatment represents the maximum probe signal (MPS). In samples treated with test compound prior to covalent probe, the ratio of probe signal to ERK signal (the test probe signal, TPS) was reduced by the degree of target occupancy by the test compound which blocks covalent probe binding. The difference between the MPS and the TPS, divided by the MPS gave the target occupancy by the test compound. This ratio was then expressed as a percent occupancy. Results from this assay are provided in Table A below under the column “Occupancy EC50 (nM) HT-29.”
Target sequence in this assay (P27361 2-379 limits assumed): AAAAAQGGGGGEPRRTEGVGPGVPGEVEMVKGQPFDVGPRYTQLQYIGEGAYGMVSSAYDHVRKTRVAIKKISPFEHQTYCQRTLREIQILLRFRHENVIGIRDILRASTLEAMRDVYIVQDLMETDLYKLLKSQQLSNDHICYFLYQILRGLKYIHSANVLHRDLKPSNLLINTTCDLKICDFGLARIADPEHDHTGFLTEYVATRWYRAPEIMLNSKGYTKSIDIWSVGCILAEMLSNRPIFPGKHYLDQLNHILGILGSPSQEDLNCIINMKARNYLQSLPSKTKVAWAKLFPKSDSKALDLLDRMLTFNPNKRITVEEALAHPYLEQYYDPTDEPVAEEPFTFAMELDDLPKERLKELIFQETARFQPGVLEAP

Where [4] appears, read: HT-29, read-out: ERK1 PRSK MSD HT29 EC50 (nM).
The mark [5] stands for this setting: MEK1 activated ERK1, WT, ATP at KM.
Where [6] appears, read: HT-29, HT29 cells, read-out: ERK1 PRSK MSD HT29 EC50.

Molecules are shown by their SMILES. Where two headings read alike, the source gives them in different places.

Sequence of MEK1 activated ERK1 (P27361 whole entry): as the sequence (P27361 whole entry, looked up) above

For `C=CC(=O)Nc1cc(C)ccc1Nc1nc(Nc2cc(NC3CCC(C)(O)CC3)nc(OC)c2)ncc1C(F)(F)F` (stereo not drawn) [Compound I-327, N-(2-((2-((2-((trans-4-hydroxy-4-methylcyclohexyl)amino)-6-methoxypyridin-4-yl)amino)-5-(trifluoromethyl)pyrimidin-4-yl)amino)-5-methylphenyl)acrylamide], on Erk1 [1], the “ERK1 Mass Mod (%)” value was “E (key: E: provided a mass modification of ≧70%; F: provided a mass modification of 31-69%; G: proived a mass modification ≦30%)”. For the same compound, in experiment [2] (setting [4]), the EC50 was < 100 nM. Further, the GI50 in the experiment on HT-29 cells was < 100 nM.
For the compound `C=CC(=O)Nc1cc(C)ccc1Nc1nc(N[C@H]2CCCN(C(=O)CF)C2)ncc1C(F)(F)F` [Compound I-43, (S)—N-(2-((2-((1-(2-Fluoroacetyl)piperidin-3-yl)amino)-5-(trifluoromethyl)pyrimidin-4-yl)amino)-5-methylphenyl)acrylamide], at Erk1 [1], the “ERK1 Mass Mod (%)” value is “E (provided a mass modification of ≧70%)”. The IC50 on MEK1 activated ERK1 (setting [5]) was < 100 nM. In addition, the EC50 in experiment [2] (setting [6]) was in the range of 101 to 500 nM. Further, in the experiment with HT-29 cells, the 50% growth inhibitory concentration (GI50) is < 100 nM.
As for `C=CC(=O)Nc1cc(F)ccc1Nc1nc(Nc2ccc(F)cc2C)ncc1Cl` [Compound I-212, N-(2-((5-chloro-2-((4-fluoro-2-methylphenyl)amino)pyrimidin-4-yl)amino)-5-fluorophenyl)acrylamide], the “ERK1 Mass Mod (%)” value at Erk1 [1] is given as “F (key: E: provided a mass modification of ≧70%; F: provided a mass modification of 31-69%; G: proived a mass modification ≦30%)”. In addition, at MEK1 activated ERK1 (read-out: ERK1 Omnia WT ATP KM IC50), the IC50 was < 100 nM. On Erk1 [3], the EC50 was < 100 nM.
As to `C=CC(=O)Nc1ccccc1Nc1nc(Nc2cc(C(N)=O)ccc2C)ncc1Cl` [Compound I-319, 3-(4-(2-acrylamidophenylamino)-5-chloropyrimidin-2-ylamino)-4-methylbenzamide], on Erk1 [1], the “ERK1 Mass Mod (%)” value is reported as “E (provided a mass modification of ≧70%)”. The IC50 at MEK1 activated ERK1 (setting [5]) was < 100 nM. The EC50 at Erk1 [3] was < 100 nM.
As to `C=CC(=O)Nc1ccccc1Nc1nc(Nc2cc(C(N)=O)c(F)cc2C)ncc1C(F)(F)F` [Compound I-76, 5-((4-((2-Acrylamidophenyl)amino)-5-(trifluoromethyl)pyrimidin-2-yl)amino)-2-fluoro-4-methylbenzamide], at Erk1 [1], the “ERK1 Mass Mod (%)” value is reported as “E (provided a mass modification of ≧70%)”. The IC50 on MEK1 activated ERK1 (setting [5]) is < 100 nM. Further, on Erk1 [3], the EC50 is < 100 nM.
On to `C=CC(=O)Nc1ccccc1Nc1nc(Nc2cc(N[C@H]3CC[C@@H](O)CC3)nc(OC)c2)ncc1C(F)(F)F` [Compound I-292], for which the “ERK1 Mass Mod (%)” value at Erk1 [1] was “E (provided a mass modification of ≧70%)”. In addition, the EC50 in experiment [2] (setting [6]) is < 100 nM. For the same compound, in the experiment with HT-29 cells, the GI50 was < 100 nM.
With `C=CC(=O)N(C)c1ccccc1Nc1nc(N[C@H]2CC[C@H](O)CC2)ncc1Cl` [Compound I-104, N-(2-((5-chloro-2-(trans-(4-hydroxycyclohexyl)amino)pyrimidin-4-yl)amino)phenyl)-N-methylacrylamide], the “ERK1 Mass Mod (%)” value on Erk1 [1] is given as “E (provided a mass modification of ≧70%)”. In addition, in experiment [2] (setting [6]), the EC50 fell in the range of 501 to 999 nM. For the same compound, in the experiment on HT-29 cells, the GI50 lay in the range of 501 to 999 nM.
As to `C=CC(=O)Nc1ccccc1Nc1nc(N[C@@H]2CCC[C@H](C(N)=O)C2)ncc1C(F)(F)F` (racemic) [Compound I-2, Rac-cis-3-((4-((2-acrylamidophenyl)amino)-5-(trifluoromethyl)pyrimidin-2-yl)amino)cyclohexanecarboxamide], at Erk1 [1], the “ERK1 Mass Mod (%)” value is “E (provided a mass modification of ≧70%)”. In addition, on Erk1 [3], the EC50 was < 100 nM.
With `C=CC(=O)Nc1cc(C)ccc1Nc1nc(Nc2cc(N[C@H]3CC[C@@H](O)CC3)nc(OC)c2)ncc1C(F)(F)F` [Compound I-326, N-(2-((2-((2-((cis-4-hydroxycyclohexyl)amino)-6-methoxypyridin-4-yl)amino)-5-(trifluoromethyl)pyrimidin-4-yl)amino)-5-methylphenyl)acrylamide], at Erk1 [1], the “ERK1 Mass Mod (%)” value is given as “E (provided a mass modification of ≧70%)”. Also, the EC50 in experiment [2] (setting [6]) was < 100 nM. Besides, the GI50 with HT-29 cells is < 100 nM.
As for `C=CC(=O)Nc1ccccc1Nc1nc(N[C@@H]2CCC[C@H](C(N)=O)C2)ncc1Cl` (racemic) [Compound I-102, Rac-cis-3-(4-(2-acrylamidophenylamino)-5-chloropyrimidin-2-ylamino)cyclohexane carboxamide], the “ERK1 Mass Mod (%)” value at Erk1 [1] is “E (provided a mass modification of ≧70%)”. Also, the IC50 at MEK1 activated ERK1 (setting [5]) was < 100 nM. In addition, the EC50 at Erk1 [3] is < 100 nM.
For `C=CC(=O)Nc1cc(C)ccc1Nc1nc(Nc2nc(OC)ncc2C(F)(F)F)ncc1C(F)(F)F` [Compound I-355, N-(2-((2-((2-methoxy-5-(trifluoromethyl)pyrimidin-4-yl)amino)-5-(trifluoromethyl)pyrimidin-4-yl)amino)-5-methylphenyl)acrylamide], on Erk1 [1], the “ERK1 Mass Mod (%)” value is given as “E (provided a mass modification of ≧70%)”. Further, the EC50 in experiment [2] (setting [6]) is < 100 nM. Besides, in the experiment on HT-29 cells, the GI50 lay within 101 to 500 nM.
With `C=CC(=O)Nc1cc(F)ccc1Nc1nc(Nc2cc(C(N)=O)ccc2C)ncc1Cl` [Compound I-206, 3-((4-((2-acrylamido-4-fluorophenyl)amino)-5-chloropyrimidin-2-yl)amino)-4-methylbenzamide], at Erk1 [1], the “ERK1 Mass Mod (%)” value is on record as “E (provided a mass modification of ≧70%)”. Moreover, at MEK1 activated ERK1 (setting [5]), the IC50 is < 100 nM. At Erk1 [3], the EC50 is < 100 nM.
For the compound `C=CC(=O)Nc1ccccc1Nc1nc(Nc2cc(CO)c(F)cc2C)ncc1C(F)(F)F` [Compound I-77, N-(2-((2-((4-Fluoro-5-(hydroxymethyl)-2-methylphenyl)amino)-5-(trifluoromethyl)pyrimidin-4-yl)amino)phenyl)acrylamide], the “ERK1 Mass Mod (%)” value on Erk1 [1] was “E (provided a mass modification of ≧70%)”. Also, the IC50 at MEK1 activated ERK1 (setting [5]) was < 100 nM. The EC50 at Erk1 [3] is < 100 nM.
As for `C=CC(=O)Nc1ccccc1Nc1nc(Nc2cc(S(N)(=O)=O)ccc2C)ncc1Cl` [Compound I-205, N-(2-((5-chloro-2-((2-methyl-5-sulfamoylphenyl)amino)pyrimidin-4-yl)amino)phenyl)acrylamide], at Erk1 [1], the “ERK1 Mass Mod (%)” value was “E (provided a mass modification of ≧70%)”. Moreover, on MEK1 activated ERK1 (setting [5]), the IC50 is < 100 nM. In addition, on Erk1 [3], the EC50 was < 100 nM.
As for `C=CC(=O)Nc1ccccc1Nc1nc(N[C@H]2CC[C@H](OC)CC2)ncc1Cl` [Compound I-100], the “ERK1 Mass Mod (%)” value on Erk1 [1] was “F (provided a mass modification of 31-69%)”. Moreover, the EC50 in experiment [2] (setting [6]) was 501 to 999 nM. Further, the GI50 in the experiment with HT-29 cells is > 1000 nM.
As to `C=CC(=O)Nc1cc(F)ccc1Nc1nc(N[C@H]2CC[C@@H](F)CC2)ncc1C(F)(F)F` [Compound I-8, N-(5-fluoro-2-((2-((cis-4-fluorocyclohexyl)amino)-5-(trifluoromethyl)pyrimidin-4-yl)amino)phenyl)acrylamide], the “ERK1 Mass Mod (%)” value at Erk1 [1] is on record as “E (key: E: provided a mass modification of ≧70%; F: provided a mass modification of 31-69%; G: proived a mass modification ≦30%)”. In experiment [2] (setting [4]), the EC50 is < 100 nM. Besides, the GI50 in the experiment on HT-29 cells was in the range of 501 to 999 nM.
